In US6635265B1, “Materials and methods useful for the control of insect larvae” (University of Florida Research Foundation, Inc., priority 1999, dated 2003):
Square brackets hold non-standard residues; d marks the D form. Ends that are not written are not given here.

Columns and labels:
mosquito larvae = assay: Feeding TMOF and its analogue peptides to mosquito larvae (LD50); format: in vivo, Aedes aegypti; details: 100 μl microtiter plates, 7 days, diet of autoclaved yeast (1 mg/ml)
Text: TMOF can traverse the gut epithelium, enter the hemolymph and bind a gut receptor (Borovsky, D. and F. Mahmood (1995) “Feeding the mosquito Aedes aegypti with TMOF and its analogs; effect on trypsin biosynthesis and egg development,” Regulatory Peptides 57:273-281.; Borovsky, D., C. A. Powell, J. K. Nayar, J. E. Blalock, and T. K. Hayes (1994) “Characterization and localization of mosquito-gut receptors for trypsin modulating oostatic factor using complementary peptide immunochemistry” FASEB J. 8:350-355.). […] This characteristic permits testing of TMOF and its analogs by feeding them to mosquito and other pest larvae. To determine whether truncated TMOF peptides have an effect on larval growth and development, a series of peptides were synthesized and tested by feeding them to mosquito larvae at concentrations of 0.5 to 5.0 mg/ml (Table 1). Individual, newly hatched Aedes aegypti larvae were maintained in separate microtiter wells on a diet of autoclaved yeast (1 mg/ml). The diet was supplemented with TMOF peptides (Table 1). An identical number of larvae which were maintained on yeast served as a control. […] All control groups survived and larval growth and development was normal. Since larvae swallow only a small portion of the yeast particles that adsorbed the peptides, it is assumed that approximately 1 to 20 ng are taken orally at the high concentrations.

trypsin biosynthesis [1] = assay: Injecting TMOF-R analogues into second instar Heliothis virescens: trypsin biosynthesis (BApNA); format: in vivo; details: second instar larvae, 24 hours after injection
Experimental: TMOF analogues (5 to 8 amino acids in length, and polymers of these analogues) in which Arg was added at the C-terminus were evaluated to determine their effect on larval growth and development. A series of analogues were synthesized and tested by feeding them to mosquito larvae at concentrations of (0.5 to 5.0 mg/ml; Table 4). Concentrations of 2.0 to 0.065 mg/ml were used to feed mosquito larvae and calculate the Lethal Dose at 50% mortality (LD50; Table 4) of the TMOF analogues. […] In both cases larval death and trypsin biosynthesis inhibition was noted (Table 4 and 5). […] The advantage of using short analogues connected by Arg is that they can be digested in the gut into short TMOF analogues that can penetrate the midgut much faster than longer analogues.
Individual second instar larvae of H. virescens were injected with TMOF-R analogues (10 to 0.25 μg per larva) and maintained in separate plastic cups on artificial diet. Twenty-four hours after the injections 3 groups of larvae (3 per group) were assayed for trypsin biosynthesis using BApNA (trypsin specific substrate; Table 5).

[2] = system: first instar H. virescens larvae; assay: Feeding of first instar H. virescens on TMOF analogs for 14 days; format: in vivo, Heliothis virescens; details: first instar larvae fed individually 1.6 µg of TMOF analogs for 14 days
[3] = system: fourth instar Heliothis virescens; assay: Feeding TMOF analogs to fourth instar H. virescens: larval weight; format: in vivo; details: fourth instar larvae fed synthetic food and 0.8 mg of TMOF analogs for 5 days
Experimental: In both cases a reduction in weight gain and trypsin inhibition was noted (Tables 3 and 4).
(§1) Larvae were fed for 5 to 14 days and larval weight and trypsin activity were measured at the end of the experimental periods. […] When first instar larvae were fed for 14 days on analogs 15 and 16 (Table 4), an 18% and 26% reduction in weight was observed.

trypsin biosynthesis [4] = assay: Feeding TMOF analogs to fourth instar H. virescens: gut trypsin biosynthesis ([3H]DFP); format: in vivo, Heliothis virescens; details: guts of fourth instar larvae after 5 days feeding on 0.8 mg of TMOF analogs
Experimental: as §1

(D)YDP ([dY]-Asp-Pro) [43]
LD50 mM ± S.E.M. (mosquito larvae): 3 0.51 ± 0.05 mM

(D)YDPAP ([dY]DPAP) [46]
LD50 mM ± S.E.M. (mosquito larvae): 3 0.56 ± 0.03 mM

(DPAR)4
Inhibition (% ± S.E.M.) of trypsin biosynthesis (trypsin biosynthesis [1]; 0.5 μg/injection): 3 ± 0.3%
Inhibition (% ± S.E.M.) of trypsin biosynthesis (trypsin biosynthesis [1]; 1 μg/injection): 35 ± 7%
Inhibition (% ± S.E.M.) of trypsin biosynthesis (trypsin biosynthesis [1]; 10 μg/injection): 58 ± 36%

AAP (TMOF peptide) [16]
LD50 mM ± S.E.M. (mosquito larvae): 3 1.08 ± 0.07 mM

ADAAP (TMOF peptide) [56]
Number of Dead Larvae [2]: 0
Weight (mg) ± S.E.M. [2]: 141 ± 9 mg
Weight Reduction (%) ± S.E.M. [2]: 7 ± 0.4%
Weight Gain [3]: 174.1 mg
Weight mg ± S.E.M. End [3]: 209.7 ± 12 mg
Inhibition (% ± S.E.M.) of trypsin biosynthesis (trypsin biosynthesis [4]): 5 ± 0.6%
Trypsin μg ± S.E.M. (trypsin biosynthesis [4]): 2.4 ± 0.3 µg

ADP (TMOF peptide) [17]
LD50 mM ± S.E.M. (mosquito larvae): 3 > 6.6 mM

ADPAP (TMOF peptide) [18]
LD50 mM ± S.E.M. (mosquito larvae): 4 2.0 ± 0.36 mM

APA (TMOF peptide) [19]
LD50 mM ± S.E.M. (mosquito larvae): 3 1.0 ± 0.07 mM

DAA (TMOF peptide) [20]
LD50 mM ± S.E.M. (mosquito larvae): 3 0.91 ± 0.06 mM

DPA
LD50 mM ± S.E.M. (mosquito larvae): 3 0.4 ± 0.03 mM

DPAR (TMOF-R analogue peptide) [60]
Inhibition (% ± S.E.M.) of trypsin biosynthesis (trypsin biosynthesis [1]; 1 μg/injection): 17 ± 2%
Inhibition (% ± S.E.M.) of trypsin biosynthesis (trypsin biosynthesis [1]; 10 μg/injection): 100%

DYP (TMOF peptide) [24]
Number of Dead Larvae [2]: 1
Weight (mg) ± S.E.M. [2]: 149 ± 9 mg
Weight Reduction (%) ± S.E.M. [2]: 9 ± 0.5%
Weight Gain [3]: 180.5 mg
Weight mg ± S.E.M. End [3]: 216.7 ± 13 mg
LD50 mM ± S.E.M. (mosquito larvae): 4 1.27 ± 0.17 mM
Inhibition (% ± S.E.M.) of trypsin biosynthesis (trypsin biosynthesis [4]): 14 ± 1.8%
Trypsin μg ± S.E.M. (trypsin biosynthesis [4]): 2.2 ± 0.3 µg

FAP (TMOF peptide) [25]
LD50 mM ± S.E.M. (mosquito larvae): 3 3.8 ± 0.23 mM

FDP (TMOF peptide) [26]
LD50 mM ± S.E.M. (mosquito larvae): 3 1.98 ± 0.6 mM

FDPAP (TMOF peptide) [27]
LD50 mM ± S.E.M. (mosquito larvae): 3 0.37 ± 0.15 mM

FSP (TMOF peptide) [28]
LD50 mM ± S.E.M. (mosquito larvae): 3 2.3 ± 0.13 mM

MPDYP5 (MPDYPPPPP; TMOF peptide) [29]
LD50 mM ± S.E.M. (mosquito larvae): 3 > 3.0 mM

PAA (TMOF peptide) [30]
LD50 mM ± S.E.M. (mosquito larvae): 3 2.4 ± 0.34 mM

PAP (TMOF peptide) [31]
LD50 mM ± S.E.M. (mosquito larvae): 3 3.17 ± 0.14 mM

Y(D)DP (Tyr-[dD]-Pro) [32]
LD50 mM ± S.E.M. (mosquito larvae): 3 0.28 ± 0.01 mM

Y(D)DPAP (Y[dD]PAP) [33]
Number of Dead Larvae [2]: 1
Weight (mg) ± S.E.M. [2]: 152 ± 27 mg
Weight Reduction (%) ± S.E.M. [2]: 7 ± 1%
Weight Gain [3]: 153 mg
Weight mg ± S.E.M. End [3]: 188 ± 12 mg
LD50 mM ± S.E.M. (mosquito larvae): 3 1.2 ± 0.3 mM
Inhibition (% ± S.E.M.) of trypsin biosynthesis (trypsin biosynthesis [4]): 15 ± 1.3%
Trypsin μg ± S.E.M. (trypsin biosynthesis [4]): 2.1 ± 0.2 µg

YAP (TMOF peptide) [34]
LD50 mM ± S.E.M. (mosquito larvae): 3 2.3 ± 0.5 mM

YAPAP (TMOF peptide) [62]
LD50 mM ± S.E.M. (mosquito larvae): 3 0.54 ± 0.13 mM
